Laboratory results from patent publication US20200024278A1, “COMPOSITION COMPRISING ANTIBIOTIC COMPOUND AND AN HETEROCYCLIC COMPOUND AND THEIR USE IN PREVENTING OR TREATING BACTERIAL INFECTIONS” (MUTABILIS, priority 2016, published 2020).

How the values were obtained:
Assay in all cases: MIC, broth microdilution (CLSI), substance alone or ATB combined with compound at 4 or 8 μg/mL
[1] = system: SAU 29213; assay type: cell-based, S. aureus; conditions: for MIC ATB combined with compound / MIC ATB combined with Example compound: compound @8 μg/ml, SAU 29213
Procedure, shortened: (§1)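 CLSI broth microdilution in cation-adjusted Mueller-Hinton broth, 5·10^5 CFU/mL log-phase inoculum, 16-20 h at 35 °C in ambient air. Fosfomycin assays supplemented with 25 μg/ml glucose-6-phosphate.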

[2] = system: KPN UFR42; assay type: cell-based, K. pneumoniae; conditions: for MIC ATB combined with Example compound: compound @8 μg/ml, KPN UFR42
Experimental: (§2) Compounds of the present invention were assessed against genotyped bacterial strains alone or in combination with an antibacterial. In the assays, MICs of said compounds or combination of antibiotics with fixed concentrations of said compounds (4 or 8 μg/mL) were determined by the broth microdilution method according to the Clinical Laboratory Standards Institute (CLSI-M7-A7). Briefly, compounds alone according to the invention were prepared in DMSO and spotted (2 μL each) on sterile polystyrene plates (Corning, 3788). Combinations of compounds and antibiotics dilutions were prepared in DMSO and spotted (1 μL each) on sterile polystyrene plates (Corning, 3788). Log phase bacterial suspensions were adjusted to a final density of 5·10^5 CFU/mL in cation-adjusted Mueller-Hinton broth (ca-MHB; Becton-Dickinson and Company) and added to each well (98 μL). Assays including Fosfomycin were supplemented with 25 μg/ml of Glucose-6-phosphate. Microplates were incubated for 16-20 h at 35° C. in ambient air. The MIC of the compounds was defined as the lowest concentration of said compounds that prevented bacterial growth as read by visual inspection. The MIC of ATB at each compound concentration was defined as the lowest concentration of ATB that prevented bacterial growth as read by visual inspection.

[3] = system: KPN BAA-1898; assay type: cell-based, K. pneumoniae
Experimental: as §2

[4] = system: KPN 6299; assay type: cell-based, K. pneumoniae; conditions: MIC of CIP, compound @8 μg/ml
Experimental: as §2

[5] = system: SPN 49619; assay type: cell-based, S. pneumoniae; conditions: for MIC ATB combined with compound / MIC ATB combined with Example compound: compound @8 μg/ml, SPN 49619
Procedure, shortened: as §1

[6] = system: ECL P99; assay type: cell-based, E. cloacae
Procedure, shortened: as §1

[7] = system: ECO 190317; assay type: cell-based, E. coli
Procedure, shortened: as §1

[8] = system: ECO UFR39; assay type: cell-based, E. coli; conditions: for MIC ATB combined with Example compound: compound @8 μg/ml, ECO UFR39
Procedure, shortened: as §1

[9] = system: PAE 105250; assay type: cell-based, P. aeruginosa; conditions: for MIC ATB combined with compound / MIC ATB combined with Example compound: compound @8 μg/ml, PAE 105250
Procedure, shortened: as §1

[10] = system: PAE UFR48; assay type: cell-based, P. aeruginosa; conditions: for MIC ATB combined with compound / MIC ATB combined with Example compound: compound @8 μg/ml, PAE UFR48
Procedure, shortened: as §1

[11] = system: PAE UFR90; assay type: cell-based, P. aeruginosa; conditions: for MIC ATB combined with compound / MIC ATB combined with Example compound: compound @8 μg/ml, PAE UFR90
Procedure, shortened: as §1

O=C1N2CC(c3ncco3)=CC(C2)N1OC(F)(F)C(=O)O (stereo not shown) [Example 7]
> 32 µg/mL: MIC ([9]; Pseudomonas aeruginosa) | MIC ([10]; Pseudomonas aeruginosa) | MIC ([11]; Pseudomonas aeruginosa)
<0.031 µg/mL: MIC ATB combined with Example compound ([6]; MIC of CIP, compound @8 μg/ml, ECL P99) | MIC ATB combined with Example compound ([7]; MIC of CIP, compound @8 μg/ml, ECO 190317) | MIC ATB combined with Example compound ([8]; MIC of CIP) | MIC ATB combined with Example compound ([8]; MIC of CPO)
<=0.031 μg/mL: MIC ATB combined with compound ([1]; ATB MEM) | MIC ATB combined with Example compound ([2]; MIC of CPO) | MIC ATB combined with compound ([5]; ATB FEP) | MIC ATB combined with compound ([5]; ATB MEM) | MIC ATB combined with Example compound ([5]; MIC of CPO)
16 µg/mL: MIC ([2]; Klebsiella pneumoniae) | MIC ([5]; Streptococcus pneumoniae) | MIC ATB combined with Example compound ([9]; MIC of CPO) | MIC ATB combined with compound ([11]; ATB ATM) | MIC ATB combined with Example compound ([11]; MIC of CPO)
0.031 µg/mL: MIC ATB combined with Example compound ([1]; MIC of CLI)
2 µg/mL: MIC ATB combined with compound ([11]; ATB MEM)
4 µg/mL: MIC ([7]; Escherichia coli) | MIC ATB combined with compound ([9]; ATB MEM) | MIC ATB combined with compound ([10]; ATB MEM) | MIC ATB combined with Example compound ([10]; MIC of CIP) | MIC ATB combined with compound ([11]; ATB FEP)
32 µg/mL: MIC ([1]; Staphylococcus aureus, MSSA) | MIC ATB combined with compound ([10]; ATB FEP) | MIC ATB combined with compound ([10]; ATB FOS)
0.125 µg/mL: MIC ATB combined with Example compound ([5]; MIC of CLI) | MIC ATB combined with Example compound ([5]; MIC of DAP) | MIC ATB combined with Example compound ([5]; MIC of ERY) | MIC ATB combined with Example compound ([5]; MIC of VAN) | MIC ATB combined with Example compound ([9]; MIC of CIP)
1 µg/mL: MIC ATB combined with compound ([1]; ATB FEP) | MIC ATB combined with compound ([1]; ATB PIP) | MIC ATB combined with Example compound ([1]; MIC of DAP) | MIC ATB combined with Example compound ([1]; MIC of LZD) | MIC ATB combined with Example compound ([1]; MIC of VAN) | MIC ATB combined with Example compound ([3]; MIC of CIP, compound @8 μg/ml, KPN BAA-1898) | MIC ATB combined with Example compound ([5]; MIC of LZD) | MIC ATB combined with Example compound ([11]; MIC of CIP)
>32 µg/mL: MIC ATB combined with compound ([1]; ATB ATM) | MIC ATB combined with Example compound ([2]; MIC of CIP) | MIC ATB combined with compound ([5]; ATB ATM) | MIC ATB combined with compound ([9]; ATB PIP) | MIC ATB combined with compound ([10]; ATB ATM) | MIC ATB combined with compound ([10]; ATB PIP) | MIC ATB combined with Example compound ([10]; MIC of CPO) | MIC ATB combined with compound ([11]; ATB PIP)
0.0078 µg/mL: MIC ATB combined with Example compound ([1]; MIC of RIF) | MIC ATB combined with Example compound ([5]; MIC of RIF)
0.25 µg/mL: MIC ATB combined with Example compound ([1]; MIC of CIP) | MIC ATB combined with Example compound ([1]; MIC of CPO) | MIC ATB combined with Example compound ([1]; MIC of ERY) | MIC ATB combined with Example compound ([1]; MIC of SYN)
>128 µg/mL: MIC ATB combined with compound ([9]; ATB FOS)
8 µg/mL: MIC ([3]; Klebsiella pneumoniae, BAA1898) | MIC ATB combined with Example compound [4] | MIC ATB combined with compound ([5]; ATB FOS) | MIC ([6]; Enterobacter cloacae) | MIC ([8]; Escherichia coli) | MIC ATB combined with compound ([9]; ATB ATM) | MIC ATB combined with compound ([9]; ATB FEP) | MIC ATB combined with compound ([11]; ATB FOS)
0.5 µg/mL: MIC ATB combined with compound ([1]; ATB FOS) | MIC ATB combined with compound ([5]; ATB PIP) | MIC ATB combined with Example compound ([5]; MIC of CIP) | MIC ATB combined with Example compound ([5]; MIC of SYN)
